Experiments:
elastin = test: Expression of extracellular matrix constituent factor in NIH3T3 cells (RT-PCR); type: cell-based, mouse; conditions: 50 μM or 100 μM peptide, 24 hours, FIG. 2, FIG. 3C
Method: (§1) In this example, the aim was to confirm the effect of the peptide according to an example on improving endogenous skin aging, including improvement of wrinkles and enhancement of elasticity, etc., by evaluating the expression levels of collagen type 1 (Col1a1), fibronectin, or elastin, which are known components of the dermis.
(§2) Specifically, NIH3T3 cells were seeded in a 6-well plate at a density of 3×10^5 cells/well and cultured for 24 hours. The cells were then washed once with serum-free DMEM media, and the culture medium was replaced with serum-free DMEM media. Thereafter, 50 μM or 100 μM of the peptide consisting of the amino acid sequence of SEQ ID NO: 1 was dispensed into the medium, and cultured in a CO2 incubator at 37° C. for 24 hours. The culture was then washed twice with PBS, and RNA was isolated from the culture using easy blue (iNtRON, Korea). Using an RT kit (Enzynomics, Korea), 1 μg of the isolated RNA was reverse transcribed to synthesize the respective cDNA. Polymerase chain reaction (PCR) was then performed using the cDNAs and primers Col1a1, fibronectin, and elastin. Meanwhile, the untreated group was used as the control group, and the group to which TGF-β1 was added (TGF-β1) was used as the positive control group, the nucleotide sequences of the primers used in this example are shown in Table 2 below.

collagen type 1 (Col1a1) = test: as above; type: cell-based, mouse; conditions: 50 μM or 100 μM peptide, 24 hours, FIG. 2, FIG. 3A
Method: as §1, §2

fibronectin = test: as above; type: cell-based, mouse; conditions: 50 μM or 100 μM peptide, 24 hours, FIG. 2, FIG. 3B
Method: as §1, §2

NIH3T3 cells [1] = test: Proliferation of skin cells (SRB staining, survival rate); type: cell-based, mouse; conditions: 50 μM or 100 μM peptide, 72 hours, serum-free DMEM, FIG. 1A
Method: (§3) In this example, the aim was to confirm the effect of a peptide according to an example on proliferation of skin cells, by evaluating changes in survival rate of NIH3T3 cells, which are mouse fibroblasts, or HaCaT cells, which are human keratinocytes.
(§4) Specifically, NIH3T3 cells or HaCaT cells were seeded in a 96-well plate at a density of 5×10^3 cells/well and cultured for 24 hours. The cells were then washed once with serum-free DMEM media, and the culture medium was replaced with serum-free DMEM media. Then, 50 μM or 100 μM of the peptide consisting of the amino acid sequence of SEQ ID NO: 1 was dispensed into the medium, and cultured in a CO2 incubator at 37° C. for 72 hours. The culture was then washed twice with PBS and treated with 4% paraformaldehyde (PFA) solution for 15 minutes to fix the cultured cells. The culture was then washed twice with distilled water, treated with SRB solution for 1 hour to stain the cells, washed with 1% acetic acid solution, and dried. The dried culture was then dissolved in 20 mM Tris buffer solution and the absorbance at 560 nm was measured using a microplate reader (Molecular Devices, USA). In this example, the untreated group was used as the control group, and the group to which insulin-like growth factor was added (IGF) was used as the positive control group.

NIH3T3 cells [2] = test: Survival rate of skin cells after apoptosis induced by ultraviolet irradiation (SRB); type: cell-based, mouse; conditions: 6 J/cm^2 ultraviolet rays, 50 μM or 100 μM peptide, 72 hours, FIG. 6A
Method: (§5) In this example, the aim was to confirm the effect of the peptide according to an example on the inhibition of apoptosis or cell recovery of skin cells induced by ultraviolet rays, by evaluating the change in survival rate of skin cells whose apoptosis was induced by ultraviolet irradiation.
(§6) Specifically, NIH3T3 cells or HaCaT cells were seeded in a 96-well plate at a density of 1×10^4 cells/well and cultured for 24 hours. The cells were then washed once with serum-free DMEM media, the culture medium was replaced with serum-free DMEM media, and 50 μM or 100 μM of the peptide consisting of the amino acid sequence of SEQ ID NO: 1 was dispensed to the culture medium. The culture medium dispensed with the peptide was cultured in a CO2 incubator at 37° C. for 1 hour, transferred to an e-tube, mixed with 100 μl of PBS, and dispensed into a well plate. Afterwards, using a UV irradiator (VILBER LOURMAT, France), 6 J/cm^2 ultraviolet rays were irradiated to NIH3T3 cells, and 15 m J/cm^2 ultraviolet rays were irradiated to HaCaT cells. The PBS in the well plate was then removed, 900 μL of the culture medium in which the peptides were dispensed was added, and the plate was cultured in a CO2 incubator at 37° C. for 72 hours. […] The dried culture was then dissolved in 20 mM Tris buffer solution and the absorbance at 560 nm was measured using a microplate reader (Molecular Devices, USA). […]

HaCaT cells [3] = test: as above; type: cell-based, human; conditions: 15 m J/cm^2 ultraviolet rays, 50 μM or 100 μM peptide, 72 hours, FIG. 6B
Method: as §5, §6

NIH3T3 cells [4] = test: Level of reactive oxygen species in ultraviolet-irradiated skin cells (DCF-DA, flow cytometry); type: cell-based, mouse; conditions: 6 J/cm2 ultraviolet rays, 50 μM or 100 μM peptide, 24 hours, FIG. 7A
Method: (§7) In this example, the aim was to confirm the effect of the peptide according to an embodiment on the antioxidant effect of skin cells induced by ultraviolet rays, by evaluating the level of reactive oxygen species in skin cells increased by ultraviolet irradiation.
(§8) Specifically, NIH3T3 cells or HaCaT cells were seeded in a 6-well plate at a density of 5×10^5 cells/well and cultured for 24 hours. The cells were then washed once with serum-free DMEM media, the culture medium was replaced with serum-free DMEM media, and 50 μM or 100 μM of the peptide consisting of the amino acid sequence of SEQ ID NO: 1 was dispensed to the culture medium. The culture medium dispensed with the peptide was cultured in a CO2 incubator at 37° C. for 1 hour, transferred to an e-tube, mixed with 100 μl of PBS, and dispensed into a well plate. Afterwards, using a UV irradiator (VILBER LOURMAT, France), 6 J/cm2 ultraviolet rays were irradiated to NIH3T3 cells, and 15 m J/cm2 ultraviolet rays were irradiated to HaCaT cells. The PBS in the well plate was then removed, 900 μL of the culture medium in which the peptides were dispensed was added, and the plate was cultured in a CO2 incubator at 37° C. for 24 hours. […] After washing the centrifuged cells with PBS, FL1 fluorescence values were measured through flow cytometry (FACS, BD, USA). […]

HaCaT cells [5] = test: as above; type: cell-based, human; conditions: 15 m J/cm2 ultraviolet rays, 50 μM or 100 μM peptide, 24 hours, FIG. 7B
Method: as §7, §8

HaCaT cells [6] = test: Proliferation of skin cells (SRB staining, survival rate); type: cell-based, human; conditions: 50 μM or 100 μM peptide, 72 hours, serum-free DMEM, FIG. 1B
Method: as §3, §4

sirtuin-1 (SIRT-1) = test: Expression of skin barrier factor in HaCaT cells (RT-PCR); type: cell-based, human; conditions: 50 μM or 100 μM peptide, 24 hours, FIG. 4, FIG. 5A
Method: (§9) In this example, the aim was to confirm the effect of the peptides according to an example on skin barrier defense, by evaluating the expression levels of sirtuin-1 (SIRT-1) or aquaporin-3 (AQP3).
(§10) Specifically, HaCaT cells were seeded in a 6-well plate at a density of 3×10^5 cells/well and cultured for 24 hours. The cells were then washed once with serum-free DMEM media, and the culture medium was replaced with serum-free DMEM media. Thereafter, 50 μM or 100 μM of the peptide consisting of the amino acid sequence of SEQ ID NO: 1 was dispensed into the medium, and cultured in a CO2 incubator at 37° C. for 24 hours. The culture was then washed twice with PBS, and RNA was isolated from the culture using easy blue (iNtRON, Korea). Using the RT kit (Enzynomics, Korea), 1 μg of the isolated RNA was reverse transcribed to synthesize the respective cDNA. Polymerase chain reaction was then performed using the cDNAs and primers sirtuin-1 and aquaporin-3. Meanwhile, the untreated group was used as the control group, and the group to which EGF was added (EGF) was used as the positive control group, the nucleotide sequences of the primers used in this example are shown in Table 3 below.

aquaporin-3 (AQP3) = test: as above; type: cell-based, human; conditions: 50 μM or 100 μM peptide, 24 hours, FIG. 4, FIG. 5B
Method: as §9, §10

Substance: DGFND (Peptide 1) [SEQ ID NO: 1]
- expression of elastin (elastin): increased
- expression of Col1a1 (collagen type 1 (Col1a1)): increased
- expression of fibronectin (fibronectin): increased
- proliferation of fibroblasts (NIH3T3 cells [1]): promoted
- cell survival rate of fibroblasts reduced by ultraviolet irradiation (NIH3T3 cells [2]): restored
- cell survival rate of keratinocytes reduced by ultraviolet irradiation (HaCaT cells [3]): restored
- level of reactive oxygen species in fibroblasts increased by ultraviolet irradiation (NIH3T3 cells [4]): reduced
- level of reactive oxygen species in keratinocytes increased by ultraviolet irradiation (HaCaT cells [5]): reduced
- proliferation of keratinocytes (HaCaT cells [6]): promoted
- expression of SIRT-1 (sirtuin-1 (SIRT-1)): increased
- expression of AQP3 (aquaporin-3 (AQP3)): increased

— patent publication US20250320249A1, “PEPTIDE HAVING ACTIVITY OF IMPROVING STATE OF SKIN, AND USE THEREOF” (CAREGEN CO., LTD., priority 2021, published 2025)
